For series [1], the system named is A2780 cancer cells. The series is described as follows: ROS/superoxide detection by flow cytometry, A2780. The conditions noted are these: A2780, 24 h, 1.0 × IC50 (pyocyanin positive control 0.1 mM); for % Population Q1 FL1-H- / FL2-H+: superoxide only; for % Population Q3 FL1-H+ / FL2-H-: total ROS only.
Experimental: (§10) Reactive oxygen species (ROS) determination using flow cytometry. The generation of ROS and
(§11) superoxide in A2780 ovarian cancer cells was evaluated using the ROS/Superoxide detection kit (Enzo
(§12) Life Sciences) following the manufacturer’s protocol.
(§13) cells per well, and incubated for 24 h (310 K). After this time, cells were exposed to equipotent
The pellets were re-suspended in 500
(§14) μL PBS and stained with green fluorescent reagent for total ROS reading in the FL1-green channel (2
(§15) μL) and orange fluorescent reagent for superoxide reading in the FL2-red channel (2 μL). Positive
(§16) control samples were treated with pyocyanin (5 μL, 30 min). Single stained positive control samples
(§17) were used for compensation purposes. Data were obtained using a Becton Dickson FACScan Flow
(§18) Cytometer and processed using FlowJo V10 for Windows.
Series [2] concerns A549 lung carcinoma cells. The series is described as follows: Sulforhodamine B antiproliferative assay, A549. The class given is cell-based, human. The following applies: 24 h drug exposure + 72 h recovery, SRB. (Sulforhodamine B stains cellular protein and so reports cell mass.)
The subject of series [3] is HOF human ovarian fibroblasts. The series is described as follows: ROS/superoxide detection by flow cytometry, HOF. The conditions noted are these: 24 h, 1.0 × IC50 (pyocyanin positive control 0.1 mM); for % Population Q2 FL1-H+ / FL2-H+: ROS and superoxide; for % Population Q1 FL1-H- / FL2-H+: superoxide only; for % Population Q3 FL1-H+ / FL2-H-: total ROS only.
Experimental: as §10, §11, §12, §13
The pellets were re-suspended in 500
as §14, §15, §16, §17, §18
Series [4] concerns HCT116Ox oxaliplatin-resistant colorectal carcinoma cells. The series is described as follows: Sulforhodamine B antiproliferative assay, HCT116Ox. The class given is cell-based, human. The following applies: 24 h drug exposure + 72 h recovery, SRB, read-out: Antiproliferative activity (IC50) HCT116Ox Colon.
Series [5] has as its system HCT116p21-/- P21-knockout colorectal carcinoma cells. The series is described as follows: Sulforhodamine B antiproliferative assay, HCT116p21-/-. The class given is cell-based, human. The conditions noted are these: 24 h drug exposure + 72 h recovery, SRB, read-out: Antiproliferative activity (IC50) HCT116p21-/- Colon.
The subject of series [6] is Tubingen wild-type zebrafish embryos. The series is described as follows: Zebrafish embryo toxicity (FET) test, TU-WT. The class given is in vivo. The following applies: 96 h exposure, read-out: LC50 (Danio rerio) TU-WT.
In series [7] the test system is Singapore wild-type zebrafish embryos. Format: in vivo, Danio rerio. The conditions noted are these: for LC50: zebrafish embryos, 96 h exposure, read-out: LC50 (Danio rerio) SG-WT. The method, then:
(§1) In vivo biological studies […]
(§2) wild-type zebrafish (SGWT) embryos (< 5 dpf). All animals were maintained in accordance with ASPA […]
(§3) maintained. Light cycle: 14 hours day, 10 hours night.
1 L breeding tank. Pairs were set up the previous evening. Males and females were separated by a divider. The divider was removed around 9am (dawn). Embryos were collected and placed into petri dishes with fresh egg water. […]

The test system of series [8] is A2780 cancer cells. The conditions noted are these: A2780, 20 μM verapamil, normalised Os. The procedure: (§4) In vitro biological studies
Cell culture. All cell lines were obtained from the European Collection of Cell Cultures (ECACC). […]
supplemented with 10% foetal calf serum, 1% 2 mM glutamine and 1% penicillin/streptomycin.
HCT116, HCT1116Ox, HCT116p21-/- and HCT116p53-/-, all of colon origin, were grown in McCoy’s Modified 5A medium supplemented with 10% foetal calf serum, 1% 2 mM glutamine and 1% penicillin/streptomycin. HOF normal ovarian fibroblasts were grown in fibroblast growth medium supplemented with 2% foetal calf serum, 1% 2 mM penicillin/streptomycin and 1% fibroblast growth factor. Cells were grown as adherent monolayers in 75 cm2 culture flasks at 310 K in a 5% CO2 humidified atmosphere and passaged at regular intervals using trypsin-EDTA.
After this time, the cells were washed with PBS and supplied
Sulforhodamine B cell viability colorimetric assay. Briefly, 5000 cells were seeded in a 96-well plate […]
mM) were prepared in medium with 5% v/v DMSO (concentration was determined after drug exposure by ICP-OES analysis for metal content). […] Cell viability was determined using the Sulforhodamine B assay.1 Cells […]
50% cell death occurred) are reported as averages with calculated standard deviations. Experiments were performed in triplicate as part as two independent experiments, and statistics calculated using two-tailed t-test assuming unequal variances (Welch’s t-test). […]

The test system of series [9] is MRC5 human lung fibroblasts. The series is described as follows: Sulforhodamine B antiproliferative assay, MRC5. The class given is cell-based. The conditions noted are these: 24 h drug exposure + 72 h recovery, SRB; non-cancer fibroblasts. The procedure: as §4
(§5) Sulforhodamine B cell viability colorimetric assay.
(§6) by ICP-OES analysis for metal content).
(§7) 72 h recovery time (310 K).
(§8) using slowly-running tap water and air dried.
(§9) Data were processed using Microsoft Excel
IC50 values (concentrations at which […]
After this time, cells were […]

In series [10] the test system is A2780 ovarian carcinoma cells. The series is described as follows: Sulforhodamine B antiproliferative assay, A2780. The class given is cell-based, human. The conditions noted are these: 24 h drug exposure + 72 h recovery in drug-free medium, SRB; read-out: Antiproliferative activity (IC50) A2780 Ovarian.
For series [11], the system named is Singapore wild-type zebrafish. The following applies: 1 or 2× LC50, 96 h, green ROS probe, confocal. The procedure:
as §1, §2, §3
1 L breeding tank. Pairs were set up the previous evening. Males and females were separated by a divider. The divider was removed around 9am (dawn). Embryos were collected and placed into petri dishes with fresh egg water.
Confocal microscopy (zebrafish). […]
or positive control samples.

The test system of series [12] is HOF human ovarian fibroblasts. The series is described as follows: Sulforhodamine B antiproliferative assay, HOF. Format: cell-based. The following applies: 24 h drug exposure + 72 h recovery, SRB; non-cancer fibroblasts. The method, then: as §4, §5, §6, §7, §8, §9
In series [13] the test system is AB wild-type zebrafish embryos. Format: in vivo. The conditions noted are these: 96 h exposure, read-out: LC50 (Danio rerio) AB-WT.
Series [14] deals with A2780Cis cisplatin-resistant ovarian carcinoma cells. The series is described as follows: Sulforhodamine B antiproliferative assay, A2780Cis. Format: cell-based, human. The conditions noted are these: 24 h drug exposure + 72 h recovery, SRB.
Series [15] concerns HCT116p53-/- P53-knockout colorectal carcinoma cells. The series is described as follows: Sulforhodamine B antiproliferative assay, HCT116p53-/-. Format: cell-based, human. The conditions noted are these: 24 h drug exposure + 72 h recovery, SRB, read-out: Antiproliferative activity (IC50) HCT116p53-/- Colon.
Series [16] deals with HCT116 colorectal carcinoma cells. The series is described as follows: Sulforhodamine B antiproliferative assay, HCT116. The following applies: 24 h drug exposure + 72 h recovery, SRB; read-out: Antiproliferative activity (IC50) HCT116 Colon. The class given is cell-based, human.
Series [17] deals with HCT116 human colorectal cancer cells xenografts. The following applies: cited from earlier work.
For series [18] the following is noted: CV vs Ag/AgCl, 100 mV/s, 10^–3 M, CH3CN; electrochemically reversible.

By LC50 is commonly meant the concentration that kills 50% of the test population. Regarding `Cc1ccc(C(C)C)cc1.Cc1ccc(S(=O)(=O)[N-]C(c2ccccc2)C([NH-])c2ccccc2)cc1.[Os+2]` (centres unmarked) [Complex 1, [Os(p-cymene)(Ts-DPEN)]], the results for the “% Population Q4 FL1-H- / FL2-H-” value (in the series on A2780 cancer cells [1]; in series [3]) were 2.4 ± 0.9% and 7.3 ± 0.5%, respectively. For the same compound, the “% Population Q1 FL1-H- / FL2-H+” value in the series on A2780 cancer cells [1] was found to be 1.2 ± 0.2%; in series [3], 9.1 ± 0.8%. For the same compound, the “% Population Q3 FL1-H+ / FL2-H-” value in the series on A2780 cancer cells [1] stood at 0.3 ± 0.1%; in series [3], 45.4 ± 0.7%. The IC50 in [2] came to 21.1 ± 0.3 µM; in series [4] it was 51 ± 2 µM; in series [5], 106 ± 2 µM; in [9], 21.4 ± 0.7 µM; in series [10] it was 15.5 ± 0.5 µM; in series [12], 29.9 ± 0.5 µM. Further, the IC50 in series [14] is 21.6 ± 0.2 µM; in [15], 62 ± 3 µM; in series [16], 37 ± 1 µM. Also, in [3], the “% Population Q2 FL1-H+ / FL2-H+” value was found to be 38 ± 1%. The LC50 turned out to be 2.6 ± 0.3 µM in series [6], 2.4 ± 0.4 µM in [7] and 4.3 ± 0.7 µM in series [13]. Besides, the “% accumulation (recovery time) 48 h” value in the series on A2780 cancer cells [8] was 30 ± 2%. The “% accumulation (recovery time) 72 h” value in the series on A2780 cancer cells [8] was determined as 17.8 ± 0.3%. Further, in series [11], the “ROS generated in vivo in zebrafish” value is “elevated levels of ROS”.

With `CN(C)c1ccc(N=Nc2ccccn2)cc1.Cc1ccc(C(C)C)cc1.F[P-](F)(F)(F)(F)F.[I][Os+]` [Complex 10, [Os(Azpy-NMe2)(p-cymene)I]PF6], the “% Population Q4 FL1-H- / FL2-H-” value in the series with A2780 cancer cells [1] worked out at 0.41 ± 0.02%; in series [3], 3.9 ± 0.3%. Also, the “% Population Q1 FL1-H- / FL2-H+” value with A2780 cancer cells [1] stood at 1.65 ± 0.09%; in [3], 11.3 ± 0.5%. Further, the “% Population Q3 FL1-H+ / FL2-H-” value in the series on A2780 cancer cells [1] is reported as 2.47 ± 0.08%; in series [3], 24.1 ± 0.9%. Moreover, the IC50 came out at 1.1 ± 0.2 µM in [2]; 0.96 ± 0.05 µM in series [4]; 1.64 ± 0.08 µM in series [5]; 4.5 ± 0.3 µM in series [9]; 0.15 ± 0.01 µM in series [10]; 2.32 ± 0.01 µM in [12]. The values for the IC50 in [14], in [15] and in series [16] were 0.15 ± 0.01 µM, 1.1 ± 0.07 µM and 0.26 ± 0.03 µM, respectively. In addition, the “% Population Q2 FL1-H+ / FL2-H+” value in series [3] is 61 ± 1%. Also, the LC50 in series [6] was determined as 17 ± 1 µM; in [7] it was 24.3 ± 0.4 µM; in series [13], 16.8 ± 0.8 µM. Besides, in series [7] (LC50 ratio vs cisplatin), the “Fold less toxic toward zebrafish embryos compared to cisplatin” value was determined as 40 ×. The “Effect on growth of xenografts” value in series [17] (HCT116 xenografts in mice) was “delay the growth of xenografts”. Further, the “Toxic side effects in xenograft-bearing mice” value in series [17] (xenograft-bearing mice) is on record as “few toxic side effects”. In series [11], the “ROS generated in vivo in zebrafish” value is recorded as “elevated levels of ROS”. Moreover, in series [18], the “First reduction step potential” value was “ca. −0.4 V”.

On to `CN(C)c1ccc(N=Nc2ccccn2)cc1.F[P-](F)(F)(F)(F)F.[I][Os+].c1ccc(-c2ccccc2)cc1` [Complex 12, [Os(Azpy-NMe2)(biphenyl)I]PF6], for which the IC50 turned out to be 0.27 ± 0.03 µM in series [2]; 0.33 ± 0.05 µM in series [4]; 0.33 ± 0.02 µM in series [5]; 0.42 ± 0.03 µM in series [9]; 0.14 ± 0.01 µM in series [10]; 0.35 ± 0.02 µM in [12]. Also, the IC50 in [14] amounted to 0.11 ± 0.01 µM; in series [15] it was 0.39 ± 0.02 µM; in [16], 0.82 ± 0.09 µM. The LC50 in series [6] turned out to be 6.5 ± 0.8 µM; in series [7] it was 6.6 ± 0.4 µM; in series [13], 7.7 ± 0.1 µM. For the same compound, the “First reduction step potential” value in series [18] is listed as “ca. −0.4 V”.

Values taken from publication PMC6204601, “In Vivo Selectivity and Localization of Reactive Oxygen Species (ROS) Induction by Osmium Anticancer Complexes That Circumvent Platinum Resistance” (Journal of Medicinal Chemistry, 2018).
